Data published in PubChem BioAssay AID330 (DTP/NCI, 2004).
Several values for one entry are separate records, joined by “and”; a condition that tells them apart may be missing. Identical values can stand only once. Toxic doses and inconclusive results are not listed. Rule for the calls: active = survival T/C of 150% or more; inactive = T/C below 125% in these data.

Test system: P388 leukemia ip, CD2F1 mice, survival T/C
Assay: NCI In Vivo Anticancer Drug Screen. Data for tumor model P388 Leukemia (intraperitoneal) in CD2F1 (CDF1) mice
Conditions: endpoint: median survival time, higher = longer survival
Summary of the method: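 Mice carrying the transplanted tumor received test compound or vehicle. Survival was recorded in each group, and the value is the treated-group measurement divided by that of the vehicle-treated control group.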

[1] = dose: 50.0 mg/kg/injection, schedule: Q01DX009 (ip), vehicle: saline
[2] = dose: 100.0 mg/kg/injection, schedule: Q01DX001 (ip), vehicle: Klucel (hydroxypropylcellulose) (HPC)
[3] = dose: 200.0 mg/kg/injection, schedule: Q01DX001 (ip), vehicle: Klucel (hydroxypropylcellulose) (HPC)
[4] = dose: 60.0 mg/kg/injection, schedule: Q01DX005 (ip), vehicle: saline with Tween-80
[5] = dose: 120.0 mg/kg/injection, schedule: Q01DX005 (ip), vehicle: saline with Tween-80

Measured: T/C

CCc1c(C#N)c(S)[nH]c(=S)c1C#N
inactive: dose: 12.5 mg/kg/injection, schedule: Q01DX009 (ip), vehicle: saline 90 % of control | dose: 25.0 mg/kg/injection, schedule: Q01DX009 (ip), vehicle: saline 100 % of control | [1] 98 % of control and 102 % of control

O=C(NCCCCCCNC(=O)C1CCCN1)C1CCCN1 (configuration not stated)
inactive: dose: 15.0 mg/kg/injection, schedule: Q01DX005 (ip), vehicle: saline 103 % of control | dose: 30.0 mg/kg/injection, schedule: Q01DX005 (ip), vehicle: saline 96 % of control | dose: 60.0 mg/kg/injection, schedule: Q01DX005 (ip), vehicle: saline 100 % of control and 97 % of control

O=C(NCc1ccccc1)N1CCN(c2ccccc2)C1=O
inactive: dose: 25.0 mg/kg/injection, schedule: Q01DX009 (ip), vehicle: saline with Tween-80 103 % of control and 88 % of control | dose: 50.0 mg/kg/injection, schedule: Q01DX009 (ip), vehicle: saline with Tween-80 98 % of control and 89 % of control and 96 % of control | dose: 100.0 mg/kg/injection, schedule: Q01DX009 (ip), vehicle: saline with Tween-80 97 % of control | dose: 200.0 mg/kg/injection, schedule: Q01DX009 (ip), vehicle: saline with Tween-80 98 % of control and 89 % of control and 93 % of control

CCOC(=O)c1ccc(NC(=O)c2ccccc2)cc1
inactive: dose: 50.0 mg/kg/injection, schedule: Q01DX001 (ip), vehicle: Klucel (hydroxypropylcellulose) (HPC) 96 % of control | [2] 90 % of control | [3] 92 % of control | dose: 400.0 mg/kg/injection, schedule: Q01DX001 (ip), vehicle: Klucel (hydroxypropylcellulose) (HPC) 95 % of control

CN(C)Cc1cocc(CN(C)C)c1=O
inactive: [1] 100 % of control | dose: 100.0 mg/kg/injection, schedule: Q01DX009 (ip), vehicle: saline 98 % of control | dose: 200.0 mg/kg/injection, schedule: Q01DX009 (ip), vehicle: saline 103 % of control

CC(/C=C/c1ccc(O)cc1)=N\NC(N)=S
inactive: dose: 3.75 mg/kg/injection, schedule: Q01DX005 (ip), vehicle: Klucel (hydroxypropylcellulose) (HPC) 103 % of control | dose: 7.5 mg/kg/injection, schedule: Q01DX005 (ip), vehicle: Klucel (hydroxypropylcellulose) (HPC) 99 % of control | dose: 15.0 mg/kg/injection, schedule: Q01DX005 (ip), vehicle: Klucel (hydroxypropylcellulose) (HPC) 99 % of control | dose: 30.0 mg/kg/injection, schedule: Q01DX005 (ip), vehicle: Klucel (hydroxypropylcellulose) (HPC) 99 % of control and 104 % of control

CC(=O)Nc1nnc(-c2cc(=O)c3cc(Cl)ccc3o2)s1
inactive: dose: 50.0 mg/kg/injection, schedule: Q01DX005 (ip), vehicle: saline with Tween-80 101 % of control | dose: 100.0 mg/kg/injection, schedule: Q01DX005 (ip), vehicle: saline with Tween-80 92 % of control | dose: 200.0 mg/kg/injection, schedule: Q01DX005 (ip), vehicle: saline with Tween-80 97 % of control

O=C(Nc1ccc(F)cc1F)Oc1cccc2cccnc12
inactive: dose: 50.0 mg/kg/injection, schedule: Q01DX009 (ip), vehicle: Klucel (hydroxypropylcellulose) (HPC) 114 % of control | dose: 100.0 mg/kg/injection, schedule: Q01DX009 (ip), vehicle: Klucel (hydroxypropylcellulose) (HPC) 112 % of control

N/N=C(\N)c1nn(C2OC(CO)C(O)C2O)c2ncnc(N)c12 (configuration not stated)
inactive: dose: 40.0 mg/kg/injection, schedule: Q01DX005 (ip), vehicle: saline with Tween-80 104 % of control | dose: 80.0 mg/kg/injection, schedule: Q01DX005 (ip), vehicle: saline with Tween-80 104 % of control | dose: 160.0 mg/kg/injection, schedule: Q01DX005 (ip), vehicle: saline with Tween-80 101 % of control | dose: 320.0 mg/kg/injection, schedule: Q01DX005 (ip), vehicle: saline with Tween-80 104 % of control

O=C(N=C1SC(=NC2CCCCC2)N1C1CCCCC1)c1ccccc1
inactive: [2] 95 % of control | [3] 100 % of control

COc1cccc2c1C(=O)c1c(O)c3c(c(O)c1C2=O)CC(O)(C(=O)CBr)CC3OC1CC(OC(C)=O)C(OC(C)=O)C(C)O1 (configuration not stated)
inactive: dose: 3.13 mg/kg/injection, schedule: Q04DX003 (ip), vehicle: distilled water + Tween-80 108 % of control | dose: 6.25 mg/kg/injection, schedule: Q04DX003 (ip), vehicle: distilled water + Tween-80 98 % of control | dose: 12.5 mg/kg/injection, schedule: Q04DX003 (ip), vehicle: distilled water + Tween-80 106 % of control | dose: 25.0 mg/kg/injection, schedule: Q04DX003 (ip), vehicle: distilled water + Tween-80 109 % of control | dose: 50.0 mg/kg/injection, schedule: Q04DX003 (ip), vehicle: distilled water + Tween-80 105 % of control

O=C(c1ccccc1)c1c(CO[N+](=O)[O-])n([O-])c2ccccc2[n+]1=O
inactive: dose: 15.0 mg/kg/injection, schedule: Q01DX005 (ip), vehicle: saline with Tween-80 105 % of control | dose: 30.0 mg/kg/injection, schedule: Q01DX005 (ip), vehicle: saline with Tween-80 109 % of control | [4] 104 % of control and 109 % of control

COSc1ccc(C)cc1
inactive: dose: 100.0 mg/kg/injection, schedule: Q04DX003 (ip), vehicle: saline 108 % of control | dose: 200.0 mg/kg/injection, schedule: Q04DX003 (ip), vehicle: saline 100 % of control

C[C@]12CCC(=O)C[C@@H]1CC[C@@H]1[C@@H]2CC[C@]2(C)[C@@H]3OCCC[C@H]3C[C@@H]12
inactive: [4] 91 % of control | [5] 89 % of control | dose: 240.0 mg/kg/injection, schedule: Q01DX005 (ip), vehicle: saline with Tween-80 90 % of control

O=C(O)c1cc2oc(-c3ccccc3)cc2[nH]1
inactive: [4] 94 % of control | [5] 92 % of control
